{"source": "patent US20150005269A1", "about": "“Treatment of Heart Failure and Sudden Cardiac Death” (Rhode Island Hospital, priority 2012, published 2015)", "system": "SERCA2", "test": "SERCA2 protein level by Western blot in cultured neonatal rabbit ventricular cardiomyocytes", "type": "cell-based", "conditions": "cultured neonatal rabbit ventricular cardiomyocytes (NRbVCM), 50 nM RU486 for 48 hours, normalized against GAPDH", "procedure": "Protein level of SERCA2 was analyzed by western blots. All measurements were normalized against GAPDH. Bar graphs represent the averages of three independent experiments plus S.D. in arbitrary unit. * p<0.05. […] Ventricular cardiomyocytes were isolated in neonatal wild type NZW rabbits (3-5 days old, 70-110 g) with enzymatic techniques. The hearts were removed from euthanized rabbits and perfused for 5 to 7 minutes with a free solution containing 140 mM NaCl, 4.4 mM KCl, 1.5 mM MgCl2, 0.33 mM NaH2PO4, 16 mM taurine, 5 mM HEPES, 5 mM pyruvic acid, and 7.5 mM glucose. Subsequently, the hearts were perfused for 10 to 15 minutes with the same solution to which 0.3 mg/ml collagenase was added. The whole ventricles were cut off and minced, and the cells were dispersed in a solution containing 45 mM KCl, 65 mM K-glutamate, 3 mM MgSO4, 15 mM KH2PO4, 16 mM taurine, 10 mM HEPES, 0.5 mM EDTA, and 10 mM glucose (pH 7.3). The cell suspension was filtered through a 100-pm cell strainer and kept at room temperature for one hour. Thereafter, the cells were gradually recovered with MEM, in which Ca^2+ concentration was increased from 100 μM, 500 μM, 1000 μM and 1800 μM. Every well of six-well plate was seed one million cells, cultured in DMEM (Lonza 12-[MUT],) with 7% FBS and 100 μM of BrdU. Medium was changed every 24 to 48 hours. […] The SERCA2 is detected by anti-SERCA2 antibody. […]"}
{"smiles": "CC#C[C@]1(O)CC[C@H]2[C@@H]3CCC4=CC(=O)CCC4=C3[C@@H](c3ccc(N(C)C)cc3)C[C@@]21C", "note": "[RU486, Mifepristone]", "values": [{"measurement": "increase of the expression of SERCA2 polypeptides", "value": 60, "unit": "%"}]}
